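Five compound concentrations were applied to cells in 96-well plates for 48 hours; endpoints were derived by simple linear interpolation of the resulting dose-response curve. GI50: concentration for 50% inhibition of growth.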 The source made the active and inactive calls. Rule as the data show it: active = GI50 up to about 1.1 µM and inactive = higher.
Columns and labels:
Assay in all cases: DTP human tumour cell line panel, 48 h
[1] = test system: SK-MEL-5
[2] = test system: OVCAR-5
[3] = test system: NCI-H522
[4] = test system: SR
[5] = test system: MOLT-4
[6] = test system: Hs-578T
[7] = test system: UACC-62
[8] = test system: CAKI-1
[9] = test system: SF-539
[10] = test system: NCI-H460
[11] = test system: SF-268
[12] = test system: HT-29
[13] = test system: LOX IMVI
[14] = test system: DU-145
[15] = test system: SNB-19
[16] = test system: TK-10
[17] = test system: SW-620
[18] = test system: A549
[19] = test system: NCI-H23
[20] = test system: SF-295

| Compound | GI50 [1] | GI50 [2] | GI50 [3] | GI50 [4] | GI50 [5] | GI50 [6] | GI50 [7] | GI50 [8] | GI50 [9] | GI50 [10] | GI50 [11] | GI50 [12] | GI50 [13] | GI50 [14] | GI50 [15] | GI50 [16] | GI50 [17] | GI50 [18] | GI50 [19] | GI50 [20] |
| --- | --- | --- | --- | --- | --- | --- | --- | --- | --- | --- | --- | --- | --- | --- | --- | --- | --- | --- | --- | --- |
| COc1cc2c(c(OC)c1OC)-c1ccc(SC)c(=O)cc1[C@@H](OC(=O)c1ccncc1)CC2 | < 0.01 µM (active) | < 0.01 µM (active) | < 0.01 µM (active) | < 0.0145 µM (active) | < 0.01 µM (active) | < 0.01 µM (active) | < 0.01 µM (active) | < 0.01 µM (active) | < 0.01 µM (active) | < 0.01 µM (active) | < 0.01 µM (active) | < 0.01 µM (active) | < 0.01 µM (active) | < 0.01 µM (active) | < 0.01 µM (active) | 4.92 µM (inactive) | < 0.01 µM (active) | < 0.01 µM (active) | < 0.01 µM (active) | < 0.01 µM (active) |
| CC(O)C1CC1(CO)CNc1cc(Cl)nc(N)n1 (stereo not given) | > 100 µM (inactive) | > 100 µM (inactive) | > 100 µM (inactive) | > 100 µM (inactive) | > 100 µM (inactive) | > 100 µM (inactive) | > 10 µM (inactive) | > 100 µM (inactive) | > 100 µM (inactive) | > 100 µM (inactive) | > 100 µM (inactive) | > 100 µM (inactive) | > 100 µM (inactive) | > 100 µM (inactive) | > 100 µM (inactive) | > 100 µM (inactive) | > 100 µM (inactive) | > 100 µM (inactive) | > 100 µM (inactive) | > 100 µM (inactive) |
| COc1cc(C2c3cc4c(cc3OC(N3CCOCC3)C2C)OCO4)cc(OC)c1OC(C)=O (stereo not given) | 4.46 µM (inactive) | 49.1 µM (inactive) | 4.3 µM (inactive) | 6.25 µM (inactive) | 13 µM (inactive) | 2.2 µM (inactive) | 5.53 µM (inactive) | 16.6 µM (inactive) | 13.3 µM (inactive) | 7.69 µM (inactive) | 39.3 µM (inactive) | 11.5 µM (inactive) | 23.6 µM (inactive) | 26.5 µM (inactive) | 15.5 µM (inactive) | 30.7 µM (inactive) | 6.12 µM (inactive) | 15 µM (inactive) | 31.3 µM (inactive) | 4.15 µM (inactive) |
| CC(C)[Si](CC1=CCCCC12C(=O)N(COCC[Si](C)(C)C)c1ccccc12)(C(C)C)C(C)C (stereo not given) | 43.7 µM (inactive) | 27.2 µM (inactive) | 41.8 µM (inactive) | > 100 µM (inactive) | > 100 µM (inactive) | > 100 µM (inactive) | > 100 µM (inactive) | > 100 µM (inactive) | 73.1 µM (inactive) | 82.2 µM (inactive) | > 100 µM (inactive) | 51.6 µM (inactive) | 29.2 µM (inactive) | 66.7 µM (inactive) | 66.5 µM (inactive) | > 100 µM (inactive) | > 100 µM (inactive) | > 100 µM (inactive) | 66.8 µM (inactive) | 31.1 µM (inactive) |
| CN1CCc2c(sc3ncn(Nc4ccc(F)cc4)c(=N)c23)C1 | > 100 µM (inactive) | > 100 µM (inactive) | 65 µM (inactive) | > 100 µM (inactive) | > 100 µM (inactive) | > 100 µM (inactive) | > 100 µM (inactive) | > 100 µM (inactive) | > 100 µM (inactive) | > 100 µM (inactive) | > 100 µM (inactive) | > 100 µM (inactive) | > 100 µM (inactive) | > 100 µM (inactive) | > 100 µM (inactive) | > 100 µM (inactive) | > 100 µM (inactive) | > 100 µM (inactive) | > 100 µM (inactive) | > 100 µM (inactive) |
| CC(C)=CCC[C@](C)(O)[C@H]1CC[C@]2(C)[C@@H]1[C@H](O)C[C@@H]1[C@@]3(C)CC[C@H](O[C@@H]4O[C@H](CO)[C@@H](O)[C@H](O)[C@H]4O)C(C)(C)[C@@H]3CC[C@]12C [GINSENOSIDE RH2] | 18.1 µM (inactive) | 26.2 µM (inactive) | 17.2 µM (inactive) | 14 µM (inactive) | 17.1 µM (inactive) | 21.9 µM (inactive) | 16.6 µM (inactive) | 18.7 µM (inactive) | 22.2 µM (inactive) | 16.6 µM (inactive) | 15.8 µM (inactive) | 15.5 µM (inactive) | 29 µM (inactive) | 19.5 µM (inactive) | 20 µM (inactive) | 21.4 µM (inactive) | 19.5 µM (inactive) | 18.8 µM (inactive) | 20.6 µM (inactive) | 23 µM (inactive) |
| Nc1nc(N)c2ncn(-c3ccc(Br)cc3)c2n1 | 32.5 µM (inactive) | 20.9 µM (inactive) | 9.77 µM (inactive) | 0.119 µM (active) | 11.6 µM (inactive) | 4.12 µM (inactive) | 17.1 µM (inactive) | 7.21 µM (inactive) | 14.7 µM (inactive) | 34.9 µM (inactive) | 15.4 µM (inactive) | 15.1 µM (inactive) | 27 µM (inactive) | 24.5 µM (inactive) | > 59.4 µM (inactive) | 35.1 µM (inactive) | 45.9 µM (inactive) | 33.1 µM (inactive) | 40.6 µM (inactive) | 34.4 µM (inactive) |
| COC(=O)C1CCN(C(=O)OC(C)(C)C)CC1 | > 100 µM (inactive) | > 100 µM (inactive) | > 100 µM (inactive) | > 100 µM (inactive) | > 100 µM (inactive) | > 100 µM (inactive) | > 100 µM (inactive) | > 100 µM (inactive) | > 100 µM (inactive) | > 100 µM (inactive) | > 100 µM (inactive) | > 100 µM (inactive) | > 100 µM (inactive) | > 100 µM (inactive) | > 100 µM (inactive) | > 100 µM (inactive) | > 100 µM (inactive) | > 100 µM (inactive) | > 100 µM (inactive) | > 100 µM (inactive) |
| COc1cc(O)c2c(O)c3c(c4c2c1[C@]1(C4)C(C)=CCCC1(C)C)[C@H](O)[C@@]1(O)CC(O)=C(C(N)=O)C(=O)[C@@]1(O)C3=O | 0.175 µM (active) | 0.324 µM (active) | 0.071 µM (active) | 0.269 µM (active) | 0.333 µM (active) | 0.147 µM (active) | 0.573 µM (active) | 0.294 µM (active) | 0.166 µM (active) | 0.0435 µM (active) | 0.269 µM (active) | 0.0615 µM (active) | 0.305 µM (active) | 0.359 µM (active) | 0.42 µM (active) | 0.189 µM (active) | 0.0619 µM (active) | 0.0499 µM (active) | 0.164 µM (active) | 0.322 µM (active) |
| CCCNC1=C2C[C@@H](C)C[C@@H](OC)[C@@H](OC(=O)CCCN)[C@H](C)/C=C(\C)[C@@H](OC(N)=O)[C@H](OC)/C=C\C=C(/C)C(=O)NC(=CC1=O)C2=O | 9.29 µM (inactive) | 15.2 µM (inactive) | 5.02 µM (inactive) | 7.98 µM (inactive) | 6.9 µM (inactive) | 25.6 µM (inactive) | 13.9 µM (inactive) | 20.3 µM (inactive) | 20.3 µM (inactive) | 11.2 µM (inactive) | 15.3 µM (inactive) | 7.05 µM (inactive) | 16 µM (inactive) | 12.1 µM (inactive) | 14.6 µM (inactive) | 17.9 µM (inactive) | 10.6 µM (inactive) | 15.7 µM (inactive) | 11.6 µM (inactive) | 18.7 µM (inactive) |
| O=C1C=CC(=O)c2c1ccc1c3ccccc3n(-c3cccc([N+](=O)[O-])c3)c21 | 5.57 µM (inactive) | > 10 µM (inactive) | 1.91 µM (inactive) | 0.412 µM (active) | 0.355 µM (active) | 3.76 µM (inactive) | 2.13 µM (inactive) | 2.55 µM (inactive) | > 5.05 µM (inactive) | > 10 µM (inactive) | 5.66 µM (inactive) | > 10 µM (inactive) | > 10 µM (inactive) | > 10 µM (inactive) | > 10 µM (inactive) | 2.24 µM (inactive) | 0.804 µM (active) | > 10 µM (inactive) | 2.65 µM (inactive) | > 10 µM (inactive) |
| CCCCCCCCCCNC1CC(OC2CC(O)(C(O)CO)Cc3c(O)c4c(c(O)c32)C(=O)c2c(OC)cccc2C4=O)OC(C)C1O (stereo not given) | 1.74 µM (inactive) | 1.8 µM (inactive) | 1.76 µM (inactive) | 0.408 µM (active) | 0.189 µM (active) | 1.67 µM (inactive) | 1.79 µM (inactive) | 1.68 µM (inactive) | 1.77 µM (inactive) | 0.601 µM (active) | 1.92 µM (inactive) | 1.33 µM (inactive) | 0.641 µM (active) | 1.79 µM (inactive) | 1.88 µM (inactive) | 4.44 µM (inactive) | 0.791 µM (active) | 1.58 µM (inactive) | 2.63 µM (inactive) | 1.9 µM (inactive) |
| CC(C)=CCC/C(C)=C/CC/C(C)=C/CCN(C)CCO | 1.89 µM (inactive) | 6.46 µM (inactive) | 6.61 µM (inactive) | 6.35 µM (inactive) | 3.44 µM (inactive) | 1.88 µM (inactive) | 13.5 µM (inactive) | 6.32 µM (inactive) | 4.25 µM (inactive) | 4.78 µM (inactive) | 12.2 µM (inactive) | 11.2 µM (inactive) | 3.15 µM (inactive) | 12.7 µM (inactive) | 8.07 µM (inactive) | 6 µM (inactive) | 3.58 µM (inactive) | 9.77 µM (inactive) | 11.6 µM (inactive) | 3.61 µM (inactive) |
